# Measurements reported in the supplement of paper PMC10307832.
# Assays:
# Assay in all cases: relative viability (nuclei count vs DMSO), 5 days (fraction); higher = more cells survive
# HCC-366 = tested on: HCC-366
# In short: (§1)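 For relative viability, nuclei counts in treated wells were divided by those in vehicle wells. Lung cancer cell lines had been pin-tool dosed in 1536-well plates the day after seeding and cultured for 5 days, then fixed and stained in one step (final 0.05% Triton X-100, 1% formaldehyde, 1 ug/ml Hoechst) and imaged at 4×. Doses were one drug alone or a fixed anchor-drug dose plus five library-drug doses (not always all listed) in √10 steps, and values are duplicate-plate medians.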
# NCI-H441 = tested on: NCI-H441
# In short: as §1
# NCI-H1651 = tested on: NCI-H1651
# In short: as §1
# NCI-H1734 = tested on: NCI-H1734
# In short: as §1
# NCI-H1755 = tested on: NCI-H1755
# In short: as §1
# NCI-H596 = tested on: NCI-H596
# In short: as §1
# PC-3 [JPC-3] = tested on: PC-3 [JPC-3]
# In short: as §1
# NCI-H1563 = tested on: NCI-H1563
# In short: as §1
# RERF-LC-KJ = tested on: RERF-LC-KJ
# In short: as §1
# NCI-H2347 = tested on: NCI-H2347
# In short: as §1
# EMC-BAC-2 = tested on: EMC-BAC-2
# In short: as §1
# NCI-H1650 = tested on: NCI-H1650
# In short: as §1
# NCI-H1437 = tested on: NCI-H1437
# In short: as §1
# CAL-12T = tested on: CAL-12T
# In short: as §1
# NCI-H727 = tested on: NCI-H727
# In short: as §1
# ABC-1 = tested on: ABC-1
# In short: as §1
# COR-L23 = tested on: COR-L23
# In short: as §1
# NCI-H3122 = tested on: NCI-H3122
# In short: as §1
# UMC-11 = tested on: UMC-11
# In short: as §1
# LK-2 = tested on: LK-2
# In short: as §1
# SK-LU-1 = tested on: SK-LU-1
# In short: as §1
# HARA = tested on: HARA
# In short: as §1
# HOP-62 = tested on: HOP-62
# In short: as §1
compound,measurement,setting,value
CCNC(=O)c1noc(-c2cc(C(C)C)c(O)cc2O)c1-c1ccc(CN2CCOCC2)cc1 [Luminespib] + Cc1nc(Nc2ncc(C(=O)Nc3c(C)cccc3Cl)s2)cc(N2CCN(CCO)CC2)n1 [Dasatinib] (partner 0.075 µM),relative viability,HCC-366; first compound 0.002 µM,0.615
same,relative viability,HCC-366; first compound 0.006325 µM,0.576
same,relative viability,HCC-366; first compound 0.02 µM,0.652
same,relative viability,HCC-366; first compound 0.06325 µM,0.0301
same,relative viability,HCC-366; first compound 0.2 µM,0.0393
same,relative viability,NCI-H441; first compound 0.002 µM,0.579
same,relative viability,NCI-H441; first compound 0.006325 µM,0.649
same,relative viability,NCI-H441; first compound 0.02 µM,0.329
same,relative viability,NCI-H441; first compound 0.06325 µM,0.132
same,relative viability,NCI-H441; first compound 0.2 µM,0.114
same,relative viability,NCI-H1651; first compound 0.002 µM,0.352
same,relative viability,NCI-H1651; first compound 0.006325 µM,0.433
same,relative viability,NCI-H1651; first compound 0.02 µM,0.331
same,relative viability,NCI-H1651; first compound 0.06325 µM,0.132
same,relative viability,NCI-H1651; first compound 0.2 µM,0.107
same,relative viability,NCI-H1734; first compound 0.002 µM,0.552
same,relative viability,NCI-H1734; first compound 0.006325 µM,0.419
same,relative viability,NCI-H1734; first compound 0.02 µM,0.314
same,relative viability,NCI-H1734; first compound 0.06325 µM,0.117
same,relative viability,NCI-H1734; first compound 0.2 µM,0.106
same,relative viability,NCI-H1755; first compound 0.002 µM,0.394
same,relative viability,NCI-H1755; first compound 0.006325 µM,0.472
same,relative viability,NCI-H1755; first compound 0.02 µM,0.455
same,relative viability,NCI-H1755; first compound 0.06325 µM,0.258
same,relative viability,NCI-H1755; first compound 0.2 µM,0.119
same,relative viability,NCI-H596; first compound 0.002 µM,0.529
same,relative viability,NCI-H596; first compound 0.006325 µM,0.614
same,relative viability,NCI-H596; first compound 0.02 µM,0.426
same,relative viability,NCI-H596; first compound 0.06325 µM,0.479
same,relative viability,NCI-H596; first compound 0.2 µM,0.511
same,relative viability,PC-3 [JPC-3]; first compound 0.002 µM,0.99
same,relative viability,PC-3 [JPC-3]; first compound 0.006325 µM,0.945
same,relative viability,PC-3 [JPC-3]; first compound 0.02 µM,0.829
same,relative viability,PC-3 [JPC-3]; first compound 0.06325 µM,0.863
same,relative viability,PC-3 [JPC-3]; first compound 0.2 µM,0.25
same,relative viability,NCI-H1563; first compound 0.002 µM,0.453
same,relative viability,NCI-H1563; first compound 0.006325 µM,0.476
same,relative viability,NCI-H1563; first compound 0.02 µM,0.394
same,relative viability,NCI-H1563; first compound 0.06325 µM,0.353
same,relative viability,NCI-H1563; first compound 0.2 µM,0.341
same,relative viability,RERF-LC-KJ; first compound 0.002 µM,0.833
same,relative viability,RERF-LC-KJ; first compound 0.006325 µM,0.897
same,relative viability,RERF-LC-KJ; first compound 0.02 µM,0.603
same,relative viability,RERF-LC-KJ; first compound 0.06325 µM,0.232
same,relative viability,RERF-LC-KJ; first compound 0.2 µM,0.234
same,relative viability,NCI-H2347; first compound 0.002 µM,0.299
same,relative viability,NCI-H2347; first compound 0.006325 µM,0.245
same,relative viability,NCI-H2347; first compound 0.02 µM,0.291
same,relative viability,NCI-H2347; first compound 0.06325 µM,0.256
same,relative viability,NCI-H2347; first compound 0.2 µM,0.198
same,relative viability,EMC-BAC-2; first compound 0.002 µM,0.355
same,relative viability,EMC-BAC-2; first compound 0.006325 µM,0.351
same,relative viability,EMC-BAC-2; first compound 0.02 µM,0.312
same,relative viability,EMC-BAC-2; first compound 0.06325 µM,0.395
same,relative viability,EMC-BAC-2; first compound 0.2 µM,0.172
same,relative viability,NCI-H1650; first compound 0.002 µM,0.326
same,relative viability,NCI-H1650; first compound 0.006325 µM,0.252
same,relative viability,NCI-H1650; first compound 0.02 µM,0.162
same,relative viability,NCI-H1650; first compound 0.06325 µM,0.192
same,relative viability,NCI-H1650; first compound 0.2 µM,0.168
same,relative viability,NCI-H1437; first compound 0.002 µM,0.421
same,relative viability,NCI-H1437; first compound 0.006325 µM,0.316
same,relative viability,NCI-H1437; first compound 0.02 µM,0.255
same,relative viability,NCI-H1437; first compound 0.06325 µM,0.252
same,relative viability,NCI-H1437; first compound 0.2 µM,0.126
same,relative viability,CAL-12T; first compound 0.002 µM,0.519
same,relative viability,CAL-12T; first compound 0.006325 µM,0.485
same,relative viability,CAL-12T; first compound 0.02 µM,0.147
same,relative viability,CAL-12T; first compound 0.06325 µM,0.0553
same,relative viability,CAL-12T; first compound 0.2 µM,0.0762
same,relative viability,NCI-H727; first compound 0.002 µM,0.358
same,relative viability,NCI-H727; first compound 0.006325 µM,0.331
same,relative viability,NCI-H727; first compound 0.02 µM,0.257
same,relative viability,NCI-H727; first compound 0.06325 µM,0.278
same,relative viability,NCI-H727; first compound 0.2 µM,0.304
same,relative viability,ABC-1; first compound 0.002 µM,0.691
same,relative viability,ABC-1; first compound 0.006325 µM,0.526
same,relative viability,ABC-1; first compound 0.02 µM,0.446
same,relative viability,ABC-1; first compound 0.06325 µM,0.197
same,relative viability,ABC-1; first compound 0.2 µM,0.193
same,relative viability,COR-L23; first compound 0.002 µM,0.6
same,relative viability,COR-L23; first compound 0.006325 µM,0.363
same,relative viability,COR-L23; first compound 0.02 µM,0.433
same,relative viability,COR-L23; first compound 0.06325 µM,0.0438
same,relative viability,COR-L23; first compound 0.2 µM,0.0462
same,relative viability,NCI-H3122; first compound 0.002 µM,0.83
same,relative viability,NCI-H3122; first compound 0.006325 µM,0.812
same,relative viability,NCI-H3122; first compound 0.02 µM,0.0669
same,relative viability,NCI-H3122; first compound 0.06325 µM,0.0573
same,relative viability,NCI-H3122; first compound 0.2 µM,0.0548
same,relative viability,UMC-11; first compound 0.002 µM,0.474
same,relative viability,UMC-11; first compound 0.006325 µM,0.488
same,relative viability,UMC-11; first compound 0.02 µM,0.309
same,relative viability,UMC-11; first compound 0.06325 µM,0.214
same,relative viability,UMC-11; first compound 0.2 µM,0.153
same,relative viability,LK-2; first compound 0.002 µM,0.267
same,relative viability,LK-2; first compound 0.006325 µM,0.293
same,relative viability,LK-2; first compound 0.02 µM,0.251
same,relative viability,LK-2; first compound 0.06325 µM,0.146
same,relative viability,LK-2; first compound 0.2 µM,0.128
same,relative viability,SK-LU-1; first compound 0.002 µM,0.194
same,relative viability,SK-LU-1; first compound 0.006325 µM,0.167
same,relative viability,SK-LU-1; first compound 0.02 µM,0.077
same,relative viability,SK-LU-1; first compound 0.06325 µM,0.049
same,relative viability,SK-LU-1; first compound 0.2 µM,0.0612
same,relative viability,HARA; first compound 0.002 µM,0.224
same,relative viability,HARA; first compound 0.006325 µM,0.279
same,relative viability,HARA; first compound 0.02 µM,0.205
same,relative viability,HARA; first compound 0.06325 µM,0.0633
same,relative viability,HARA; first compound 0.2 µM,0.0774
same,relative viability,HOP-62; first compound 0.002 µM,0.734
same,relative viability,HOP-62; first compound 0.006325 µM,0.611
same,relative viability,HOP-62; first compound 0.02 µM,0.603
same,relative viability,HOP-62; first compound 0.06325 µM,0.408
same,relative viability,HOP-62; first compound 0.2 µM,0.102
